Test results reported in patent US11071488B2, “Method for determining the likelihood of torsades de pointes being induced” (ASSISTANCE PUBLIQUE—HOPITAUX DE PARIS, priority 2016, dated 2021).
Read-outs that look alike come from different tables or passages of the source.

Columns and labels:
IKr channel [1] = target: T1, IKr channel (Homo sapiens, UniProt Q12809); settings: for double peaks (notches) three hours after taking sotalol: 80 mg sotalol
Procedure: The QTcF, TAmp and TpTe were measured according to the same protocol as for example 1, before and three hours after administration of a single oral dose of sotalol at 80 mg.
The ΔQTcF, ΔTpTe and ΔTAmp were also calculated.

IKr potassium channel = IKr potassium channel (Homo sapiens, UniProt Q12809); settings: cited from earlier work
IKr potassium channel, sequence (Q12809 whole entry): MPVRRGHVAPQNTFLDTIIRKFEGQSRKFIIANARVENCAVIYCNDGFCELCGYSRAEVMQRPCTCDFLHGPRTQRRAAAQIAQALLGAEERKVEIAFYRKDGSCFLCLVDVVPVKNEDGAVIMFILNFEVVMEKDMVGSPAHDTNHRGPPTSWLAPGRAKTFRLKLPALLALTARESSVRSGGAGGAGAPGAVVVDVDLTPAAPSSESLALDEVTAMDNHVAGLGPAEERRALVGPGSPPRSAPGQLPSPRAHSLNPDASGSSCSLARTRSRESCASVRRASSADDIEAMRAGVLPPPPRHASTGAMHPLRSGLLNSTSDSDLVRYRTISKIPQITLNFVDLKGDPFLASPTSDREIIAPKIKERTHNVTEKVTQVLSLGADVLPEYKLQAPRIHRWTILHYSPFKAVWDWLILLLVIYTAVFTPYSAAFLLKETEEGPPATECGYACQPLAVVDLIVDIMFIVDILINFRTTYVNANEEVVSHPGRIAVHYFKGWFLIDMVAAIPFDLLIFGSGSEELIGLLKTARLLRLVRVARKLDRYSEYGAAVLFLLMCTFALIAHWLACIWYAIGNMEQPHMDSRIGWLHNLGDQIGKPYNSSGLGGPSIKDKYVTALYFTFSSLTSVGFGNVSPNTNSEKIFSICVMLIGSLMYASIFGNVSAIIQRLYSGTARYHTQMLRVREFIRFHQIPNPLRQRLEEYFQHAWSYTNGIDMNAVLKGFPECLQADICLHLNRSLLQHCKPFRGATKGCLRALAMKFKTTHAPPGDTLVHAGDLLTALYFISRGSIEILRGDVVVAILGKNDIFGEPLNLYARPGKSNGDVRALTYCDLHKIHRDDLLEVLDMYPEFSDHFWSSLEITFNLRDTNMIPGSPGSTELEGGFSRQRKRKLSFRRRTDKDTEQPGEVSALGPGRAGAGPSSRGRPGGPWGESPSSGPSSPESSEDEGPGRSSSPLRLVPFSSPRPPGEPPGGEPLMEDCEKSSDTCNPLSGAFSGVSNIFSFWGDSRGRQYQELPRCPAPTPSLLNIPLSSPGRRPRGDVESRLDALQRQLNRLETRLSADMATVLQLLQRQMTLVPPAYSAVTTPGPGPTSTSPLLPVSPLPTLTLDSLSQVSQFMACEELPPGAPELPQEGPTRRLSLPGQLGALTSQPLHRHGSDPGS

IKr channel [2] = target: T1, IKr channel; assay: ECG changes three hours after a single oral dose of 80 mg sotalol (GENEREPOL cohort, Example 1); assay type: in vivo; parameters: from tissue; host or cells: heart (ventricular myocardium) of living human volunteers; surface ECG read-out; settings: H3
Procedure: The cohort of patients was that of the GENEREPOL study, and consisted of 995 volunteers in good health, from 18 to 60 years old, of European or North African origin. The objective of this study was to identify genetic predispositions linked to the inhibition of the IKr channel after administration of 80 mg sotalol, with a body mass index between 19 and 29 kg/m^2, informed consent having been received. […]
An intravenous catheter was inserted for taking blood samples. The ECG of the patients was then recorded using the Cardioplug device (Cardionics Inc®, Brussels, Belgium) connected to a laptop computer. […] Three hours after sotalol had been taken ([…]), the ECG was again recorded (in triplicate) after the subjects had remained lying on their back for 10 minutes and before lunch. […]
The QTcF, TpTe and TAmp and the presence of notches (double peak) in the T wave were quantified. […]
The quantitative analysis of the QTcF, TpTe and TAmp was carried out by two trained investigators, in order to limit the inter-evaluator variability.
TpTe was measured by the tangent method, in triplicate, on a representative beat (average representation of an ECG of 10 seconds) on the V3, V4 and V5 leads. […]
QTcF was measured by the tangent method on the DII lead for three consecutive beats and the average value of an evaluation in triplicate was retained. […]

T1 sequence (Q12809 whole entry): as above

Structure (SMILES) | double peaks (notches) three hours after taking sotalol (IKr channel [1]; women taking drospirenone) | double peaks (notches) three hours after taking sotalol (IKr channel [1]; women not taking an oral contraceptive) | plasma sotalol concentration (IKr channel [1]; women taking drospirenone vs women with no contraception) | risk of induction of torsades de pointes (IKr potassium channel; dose-dependent) | increase in QT/QTc (IKr potassium channel; sotalol at 80 mg) | induction of an episode of torsade de pointes (IKr potassium channel; sotalol at 80 mg) | time of maximum concentration after oral intake (IKr potassium channel; taken orally) | subjects exhibiting a double peak (notch) (IKr channel [2]; first (exploration) cohort, 40 subjects) | subjects exhibiting a double peak (notch) (IKr channel [2]; second (replication) cohort, 51 subjects)
C[C@]12CCC(=O)C=C1[C@@H]1C[C@@H]1[C@H]1[C@@H]3[C@@H]4C[C@@H]4[C@@]4(CCC(=O)O4)[C@@]3(C)CC[C@@H]12 [drospirenone] | 25.8% |  |  |  |  |  |  |  | 
CC(C)NCC(O)c1ccc(NS(C)(=O)=O)cc1 (stereo not drawn) [sotalol] |  | 13.4% | No difference | up to 7 % of patients treated | approximately 20 ms | does not induce an episode of torsade de pointes | approximately 3 hours | 8% | 10%
